# In article PMC8318231, “Rate-of-Kill (RoK) assays to triage large compound sets for Chagas disease drug discovery: Application to GSK Chagas Box” (PLoS Neglected Tropical Diseases, 2021):
# Experiments:
# [1] = tested on: T. cruzi intracellular amastigotes in H9c2 cells; test: Rate-of-Kill (RoK) high-content imaging assay, amastigotes per cell (AM/CELL) and curve descriptors; assay type: cell-based, Trypanosoma cruzi; parameters: key to ME_24h / ME_48h / ME_72h: % reduction in parasite burden (cidal response); t50pct_MCC50 / t50pct_Cmax: unit not given here; settings: for ME_24h: 24h; for ME_48h: 48h; for ME_72h: 72h; for AM/CELL NORM: sheet figure 4 A; for tlag_Cmax / t50pct_Cmax / t50%_Cmax: at Cmax; for ME_24h (%): maximum effect at 24 h; for ME_24h (%) / ME_48h (%) / ME_72h (%): RoK assay; for ME_48h (%): maximum effect at 48 h; for ME_72h (%): maximum effect at 72 h; for ME 24h (maximum effect at 24 hours, intracellular amastigotes): maximum percentage of parasite burden reduction reached by any concentration
# Procedure, shortened: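 Readouts at each time point are amastigotes per cell and host nuclei count (cytotoxicity), from DRAQ5 high-content imaging. Infection: trypomastigotes on H9c2 at MOI 8 for 18 h. Dosing was 5 μM single point or 11 points, 1/3 steps from 50 μM. Effect scaled between 4 h infected and uninfected controls.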
# [2] = tested on: T. cruzi Tulahuen trypomastigotes; test: T. cruzi trypomastigote assay (Cell Titer-Glo viability, ATP luminescence); assay type: cell-based, Trypanosoma cruzi; settings: for Trypomastigotes pIC50 48 hours: 48 hours incubation; for Trypomastigotes pIC50 48 hours / Trypomastigotes pIC50 72 hours: pIC50 = -log10 IC50 in molar units; for Trypomastigotes pIC50 72 hours: 72 hours incubation; for 72 pIC50 (trypomastigotes, raw data of Fig 1D): 72 hours, plotted values, censored values given without sign; for 48 pIC50 / 72 pIC50: trypomastigote assay; for 48 pIC50: 48 h; for 72 pIC50: 72 h
# Procedure, shortened: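 Compounds were tested in dose response or once at a final 5 μM against 5 × 10^4 trypomastigotes per well (DMEM, 2% FBS), collected on days 5–8 from LLC-MK2 infected cultures. ATP luminescence via CellTiter-Glo reports live parasites; DMSO defines 0% and cell-free wells 100% effect.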
SMILES,ME_24h ([1]; figure 5),ME_48h ([1]; figure 5),ME_72h ([1]; figure 5),MCCE ([1]; RoK curve descriptor),AM/CELL NORM ([1]; Time 4),AM/CELL NORM ([1]; Time 24),AM/CELL NORM ([1]; Time 48),AM/CELL NORM ([1]; Time 72),tlag_Cmax [1],t50pct_Cmax ([1]; figure 5),tlag_Cmax ([1]; figure 5),"t50pct_MCC50 ([1]; at MCC50, figure 5)","tlag_MCC50 ([1]; at MCC50, figure 5)",MCCE ([1]; figure 5),ME_24h (%) [1],ME_48h (%) [1],ME_72h (%) [1],"ME 24h (maximum effect at 24 hours, intracellular amastigotes) [1]",Trypomastigotes pIC50 48 hours [2],Trypomastigotes pIC50 72 hours [2],other results
O=C(NC1C(=O)N(c2ccccc2)C1c1cccnc1)c1ccc(Cl)s1 (stereo not drawn) [TCMDC-143324],-26.8888,-112.607,-10.0757,0.07 µM,-16.6269,-26.8888,-112.607,-155.468,72.0 h,72,72,72,72,0.06859,-26.9%,-112.6%,-10.1%,-26.8888%,< 4.3,< 4.3,"MCC50 ([1]; figure 5): 50 µM; 72 pIC50 (trypomastigotes, raw data of Fig 1D) [2]: < 4.3; 48 pIC50 ([2]; figure 1A): < 4.3; 72 pIC50 ([2]; figure 1A): < 4.3; 72 pIC50 ([2]; figure 1B): < 4.3"
CCCCNc1nccc(-c2c(-c3ccc(F)cc3)nn3c(N4CCOCC4)cccc23)n1 [TCMDC-143617],-170.943,-538.575,-488.335,5.6 µM,-16.0226,-225.539,-1143.86,-2417.88,72.0 h,72,72,72,72,5.556,-170.9%,-538.6%,-488.3%,-170.943%,5.1,< 4.3,MCC50 ([1]; figure 5): 50 µM
Cn1cc(CN2CCN(c3ccc4c(c3)CCN(C(=O)[C@H]3C[C@@H]3c3ccccc3)CC4)CC2)cn1 [TCMDC-143537],33.1689,35.5175,52.5957,0.6 µM,1.751,33.1689,30.0543,50.1418,4.0 h,72,4,72,24,0.6173,33.2%,35.5%,52.6%,33.1689%,5,4.9,"MCC50 ([1]; RoK curve descriptor): 16.7 µM; t50%_Cmax [1]: 72.0 h; t50%_MCC50 ([1]; at MCC50): 72.0 h; tlag_MCC50 ([1]; at MCC50): 24.0 h; MCC50 ([1]; figure 5, in µM): 16.6667"
CC(C)c1cc(C(=O)N2CCCC(c3cc4ncccc4[nH]3)C2)on1 (stereo not drawn) [TCMDC-143439],43.352,76.8723,68.3635,1.0 µM,3.622,43.352,76.8723,68.3635,4.0 h,48,4,48,4,1.852,63.1%,82.0%,79.3%,82.7741%,5.3,5.3,"MCC50 ([1]; RoK curve descriptor): 16.7 µM; t50%_Cmax [1]: 48.0 h; t50%_MCC50 ([1]; at MCC50): 60.0 h; tlag_MCC50 ([1]; at MCC50): 14.0 h; MCC50 ([1]; figure 5, in µM): 16.6667; 72 pIC50 (trypomastigotes, raw data of Fig 1D) [2]: 5.3; 48 pIC50 ([2]; figure 1A): 5.3; 72 pIC50 ([2]; figure 1A): 5.3; 72 pIC50 ([2]; figure 1B): 5.3"
Cc1c(C(C)NC(=O)Nc2cccc(Cl)c2)sc2ncnn12 (stereo not drawn) [TCMDC-143405],-289.196,-32.4517,41.1216,0.07 µM,-4.394,-289.196,-32.4517,-0.1706,24.0 h,72,24,72,72,0.06859,-289.2%,-32.5%,41.1%,-289.196%,< 4.3,< 4.3,"MCC50 ([1]; figure 5): 50 µM; 72 pIC50 (trypomastigotes, raw data of Fig 1D) [2]: < 4.3; 48 pIC50 ([2]; figure 1A): < 4.3; 72 pIC50 ([2]; figure 1A): < 4.3; 72 pIC50 ([2]; figure 1B): < 4.3"
CCCCn1nnnc1CSc1nc(C)cc(C)c1C#N [TCMDC-143315],53.1743,83.3988,72.5932,0.2 µM,13.5421,53.1743,83.3988,54.3555,4.0 h,24,4,48,4,0.2058,53.2%,83.4%,72.6%,53.1743%,6.6,6.8,"MCC50 ([1]; RoK curve descriptor): 0.6 µM; t50%_Cmax [1]: 24.0 h; t50%_MCC50 ([1]; at MCC50): 48.0 h; tlag_MCC50 ([1]; at MCC50): 4.0 h; MCC50 ([1]; figure 5, in µM): 0.6173"
CC(=Cc1ccccc1)CN1CCC(=O)N(Cc2cccnc2)CC1 [TCMDC-143421],-70.7645,-276.175,-1.901,1.9 µM,-0.3924,-98.2079,-300.018,-16.9527,48.0 h,72,48,72,72,1.852,-70.8%,-276.2%,-1.9%,-70.7645%,4.7,< 4.3,MCC50 ([1]; figure 5): 50 µM
